This note sets out measurements from ChEMBL document CHEMBL3098040, “Design and Discovery of 2-Arylquinazolin-4-ones as Potent and Selective Inhibitors of Tankyrases” (ACS Med Chem Lett, 2013).

Some results are limits rather than exact numbers.

For experiment [1], the target named is Inosine-5'-monophosphate dehydrogenase 2 (Homo sapiens, UniProt P12268). Put plainly: Inhibition of human recombinant IMPDH2 by spectrophotometry.
The target of experiment [2] is Poly [ADP-ribose] polymerase 1 (Homo sapiens, UniProt P09874). The experiment is described as follows: Inhibition of PARP1 (unknown origin) after 1 hr by spectrophotometry.
Experiment [3] concerns the target T1, Poly [ADP-ribose] polymerase tankyrase-2 (Homo sapiens, UniProt Q9H2K2).
T1 sequence (Q9H2K2 whole entry): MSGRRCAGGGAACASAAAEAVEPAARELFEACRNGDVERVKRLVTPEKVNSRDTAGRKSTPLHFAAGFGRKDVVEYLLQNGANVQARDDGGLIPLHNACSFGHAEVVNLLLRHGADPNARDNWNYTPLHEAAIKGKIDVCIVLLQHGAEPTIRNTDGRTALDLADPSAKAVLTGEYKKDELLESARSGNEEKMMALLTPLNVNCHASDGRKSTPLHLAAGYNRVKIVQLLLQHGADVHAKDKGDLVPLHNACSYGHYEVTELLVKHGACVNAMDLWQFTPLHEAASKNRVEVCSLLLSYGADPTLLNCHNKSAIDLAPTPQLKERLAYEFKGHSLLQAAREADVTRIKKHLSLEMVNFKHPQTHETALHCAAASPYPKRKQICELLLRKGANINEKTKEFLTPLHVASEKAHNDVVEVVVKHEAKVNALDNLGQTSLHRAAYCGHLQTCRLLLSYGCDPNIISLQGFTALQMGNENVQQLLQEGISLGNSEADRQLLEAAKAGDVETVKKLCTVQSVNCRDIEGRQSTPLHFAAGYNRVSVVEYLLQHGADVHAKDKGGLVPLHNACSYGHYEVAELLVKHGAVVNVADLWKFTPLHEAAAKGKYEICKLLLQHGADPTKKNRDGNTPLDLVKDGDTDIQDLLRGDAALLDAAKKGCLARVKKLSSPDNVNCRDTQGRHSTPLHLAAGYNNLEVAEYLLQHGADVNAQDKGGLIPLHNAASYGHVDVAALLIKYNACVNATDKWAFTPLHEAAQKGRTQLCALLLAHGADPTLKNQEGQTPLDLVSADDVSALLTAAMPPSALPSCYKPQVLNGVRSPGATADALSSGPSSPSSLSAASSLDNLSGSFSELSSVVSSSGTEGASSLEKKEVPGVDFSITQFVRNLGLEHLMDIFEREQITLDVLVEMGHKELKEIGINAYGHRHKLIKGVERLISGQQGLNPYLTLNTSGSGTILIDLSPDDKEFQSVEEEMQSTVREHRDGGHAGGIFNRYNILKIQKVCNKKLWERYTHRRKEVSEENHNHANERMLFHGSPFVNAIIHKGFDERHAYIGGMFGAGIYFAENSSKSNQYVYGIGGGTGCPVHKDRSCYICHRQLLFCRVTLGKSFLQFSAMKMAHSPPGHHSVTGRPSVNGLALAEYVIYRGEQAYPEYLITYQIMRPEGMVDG
The experiment is described as follows: Inhibition of human tankyrase2 after 2 hrs by spectrophotometry.

Experiment [4] has as its target T2, Poly [ADP-ribose] polymerase tankyrase-1 (Homo sapiens, UniProt O95271).
T2 sequence (O95271 whole entry): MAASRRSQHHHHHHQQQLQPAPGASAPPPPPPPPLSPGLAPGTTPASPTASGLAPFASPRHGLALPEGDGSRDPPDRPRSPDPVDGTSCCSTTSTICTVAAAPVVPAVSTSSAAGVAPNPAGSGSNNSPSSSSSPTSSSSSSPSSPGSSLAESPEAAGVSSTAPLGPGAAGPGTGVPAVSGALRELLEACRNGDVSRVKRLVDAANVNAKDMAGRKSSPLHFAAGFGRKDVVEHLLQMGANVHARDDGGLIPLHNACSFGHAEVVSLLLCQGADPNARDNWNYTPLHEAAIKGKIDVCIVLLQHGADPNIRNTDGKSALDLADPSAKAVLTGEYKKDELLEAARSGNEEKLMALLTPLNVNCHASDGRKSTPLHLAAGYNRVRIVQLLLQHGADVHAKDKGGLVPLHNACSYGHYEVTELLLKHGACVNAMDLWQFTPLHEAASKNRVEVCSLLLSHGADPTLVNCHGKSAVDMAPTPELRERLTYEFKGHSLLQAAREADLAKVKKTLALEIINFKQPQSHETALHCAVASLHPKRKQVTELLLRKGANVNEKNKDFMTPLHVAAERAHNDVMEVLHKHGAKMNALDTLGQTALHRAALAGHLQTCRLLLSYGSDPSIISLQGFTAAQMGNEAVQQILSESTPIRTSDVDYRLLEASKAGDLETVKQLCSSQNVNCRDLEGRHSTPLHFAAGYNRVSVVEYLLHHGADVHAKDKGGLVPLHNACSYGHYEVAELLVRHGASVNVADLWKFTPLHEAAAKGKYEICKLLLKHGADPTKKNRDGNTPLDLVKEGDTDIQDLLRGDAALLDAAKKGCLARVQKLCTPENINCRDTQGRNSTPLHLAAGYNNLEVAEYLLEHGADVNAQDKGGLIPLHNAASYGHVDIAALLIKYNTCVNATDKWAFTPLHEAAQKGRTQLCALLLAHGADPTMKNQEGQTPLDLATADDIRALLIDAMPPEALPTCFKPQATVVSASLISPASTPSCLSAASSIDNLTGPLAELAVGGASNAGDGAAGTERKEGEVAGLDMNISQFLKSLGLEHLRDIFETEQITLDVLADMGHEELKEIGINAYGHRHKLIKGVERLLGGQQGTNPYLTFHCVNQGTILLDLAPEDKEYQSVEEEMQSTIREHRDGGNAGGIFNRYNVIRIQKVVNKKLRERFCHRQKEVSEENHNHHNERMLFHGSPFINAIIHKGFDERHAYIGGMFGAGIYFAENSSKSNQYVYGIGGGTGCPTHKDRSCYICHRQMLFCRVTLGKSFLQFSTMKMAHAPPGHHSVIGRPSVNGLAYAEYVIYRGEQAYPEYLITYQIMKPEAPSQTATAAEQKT
Put plainly: Inhibition of human tankyrase1 after 30 mins by spectrophotometry.

The species named for experiment [5] is Homo sapiens. Put plainly: Selectivity ratio of IC50 for PARP1 (unknown origin) to IC50 for human tankyrase2.
For experiment [6], the species on record is Homo sapiens. Put plainly: Selectivity ratio of IC50 for PARP1 (unknown origin) to IC50 for human tankyrase1.
The target in experiment [7] is T3, Poly [ADP-ribose] polymerase tankyrase-2 (Homo sapiens) (UniProt Q9H2K2).
T3 sequence (whole entry): T1 sequence (Q9H2K2 whole entry)
Put plainly: Inhibition of human tankyrase2 at 10 nM after 2 hrs by spectrophotometry.

Poly [ADP-ribose] polymerase 1, sequence (P09874 whole entry): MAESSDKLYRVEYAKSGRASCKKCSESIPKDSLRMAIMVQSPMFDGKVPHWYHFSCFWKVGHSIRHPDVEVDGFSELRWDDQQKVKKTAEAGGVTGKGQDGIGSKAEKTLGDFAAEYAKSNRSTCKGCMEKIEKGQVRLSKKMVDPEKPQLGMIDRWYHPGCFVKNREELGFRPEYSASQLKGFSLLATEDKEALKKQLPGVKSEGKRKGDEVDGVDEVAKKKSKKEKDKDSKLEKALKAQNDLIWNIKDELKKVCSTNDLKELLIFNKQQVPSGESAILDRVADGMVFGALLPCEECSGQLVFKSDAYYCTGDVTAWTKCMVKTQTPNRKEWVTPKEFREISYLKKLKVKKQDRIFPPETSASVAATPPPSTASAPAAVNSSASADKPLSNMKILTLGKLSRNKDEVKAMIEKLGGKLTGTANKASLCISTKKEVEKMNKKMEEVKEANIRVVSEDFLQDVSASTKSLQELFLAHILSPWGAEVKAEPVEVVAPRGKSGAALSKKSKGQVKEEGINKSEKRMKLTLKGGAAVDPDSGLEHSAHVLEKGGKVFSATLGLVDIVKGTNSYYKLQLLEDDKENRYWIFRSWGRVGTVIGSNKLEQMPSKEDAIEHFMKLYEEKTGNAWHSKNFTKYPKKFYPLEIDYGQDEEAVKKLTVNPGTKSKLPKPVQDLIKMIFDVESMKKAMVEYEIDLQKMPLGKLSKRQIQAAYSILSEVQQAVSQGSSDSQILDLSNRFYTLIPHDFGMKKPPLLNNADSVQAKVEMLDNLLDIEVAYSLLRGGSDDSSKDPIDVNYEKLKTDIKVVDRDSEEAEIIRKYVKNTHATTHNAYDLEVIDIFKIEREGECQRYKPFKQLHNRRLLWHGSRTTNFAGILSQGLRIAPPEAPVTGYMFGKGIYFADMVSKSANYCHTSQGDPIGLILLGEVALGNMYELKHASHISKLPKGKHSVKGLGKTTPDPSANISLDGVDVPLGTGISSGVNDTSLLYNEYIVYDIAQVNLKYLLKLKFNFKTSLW

One may read the IC50 as the concentration that gives 50% inhibition. On to `Cc1cccc2c(=O)[nH]c(-c3ccccc3)nc12`, for which the IC50 in experiment [1] was > 10000 nM; in experiment [2] it was 795 nM; in experiment [3], 41 nM; in experiment [4] it was 42 nM.
Take `Cc1cccc2c(O)nc(-c3ccc(C(F)(F)F)cc3)nc12`: the Ratio IC50 was > 500 in the experiment filed under Homo sapiens [5] and > 100 in the experiment filed under Homo sapiens [6]. Further, the IC50 in experiment [1] is > 10000 nM; in experiment [2], > 5000 nM; in experiment [3], 10 nM; in experiment [4], 48 nM.
With `Cc1cccc2c(=O)[nH]c(-c3ccc(F)cc3)nc12`, the IC50 in experiment [1] is > 10000 nM; in experiment [2], > 5000 nM; in experiment [3], 40 nM; in experiment [4], 44 nM.
In the case of `Cc1cccc2c(=O)[nH]c(-c3ccc(Br)cc3)nc12`, the figures for the Ratio IC50 in the experiment filed under Homo sapiens [5] and in the experiment listed under Homo sapiens [6] were > 830 and > 150, respectively. In addition, the IC50 in experiment [1] is > 10000 nM; in experiment [2], > 5000 nM; in experiment [3] it was 5.5 nM; in experiment [4], 32 nM.
As usually defined, the inhibition is how much of the control response was suppressed. A low value points to a weak effect. Turning to `Cc1cccc2c(=O)[nH]c(-c3ccc(Cl)cc3)nc12`, the inhibition in experiment [7] was 49%. In addition, the IC50 in experiment [1] was > 10000 nM; in experiment [2], > 5000 nM; in experiment [3] it was 33 nM; in experiment [4], 36 nM.
As for `COc1cccc2c(=O)[nH]c(-c3ccc(Cl)cc3)nc12`, in experiment [7], the inhibition is 25%.
With `Cc1cccc2c(O)nc(-c3ccc([N+](=O)[O-])cc3)nc12`, the IC50 was > 10000 nM in experiment [1], 30 nM in experiment [3] and 32 nM in experiment [4].
With `Cc1cccc2c(=O)[nH]c(-c3ccc(CNC(=O)OCc4ccccc4)cc3)nc12`, the Ratio IC50 in the experiment filed under Homo sapiens [5] was > 110; in the experiment filed under Homo sapiens [6], > 70. Further, the IC50 in experiment [1] is > 10000 nM; in experiment [2] it was > 5000 nM; in experiment [3], 44 nM; in experiment [4], 73 nM.
For the compound `Oc1nc(-c2ccc(C(F)(F)F)cc2)nc2c1CSCC2`, the IC50 in experiment [1] is > 10000 nM.
For `Cc1cccc2c(O)nc(-c3ccc(N)cc3)nc12`, the Ratio IC50 in the experiment filed under Homo sapiens [5] was determined as 170; in the experiment listed under Homo sapiens [6], 14. The IC50 is > 10000 nM in experiment [1], 504 nM in experiment [2], 3.3 nM in experiment [3] and 35 nM in experiment [4].
Take `Cc1ccc(-c2nc3c(C)cccc3c(=O)[nH]2)cc1`: the IC50 was > 10000 nM in experiment [1], 685 nM in experiment [2], 6.7 nM in experiment [3] and 35 nM in experiment [4].
As to `O=c1[nH]c(-c2ccc(Cl)cc2)nc2c(O)cccc12`, the inhibition in experiment [7] was 32%.
`Cc1cccc2c(O)nc(-c3ccc(O)cc3)nc12`: the Ratio IC50 in the experiment filed under Homo sapiens [5] is 240; in the experiment filed under Homo sapiens [6] it was 23.
For the compound `Cc1cccc2c(=O)[nH]c(-c3ccc(O)cc3)nc12`, the IC50 in experiment [1] is > 10000 nM; in experiment [2], 1200 nM; in experiment [3], 3 nM; in experiment [4] it was 52 nM.
As to `O=c1[nH]c(-c2ccc([N+](=O)[O-])cc2)nc2ccccc12`, the inhibition in experiment [7] was 2%.
On to `COc1ccc(-c2nc3c(C)cccc3c(=O)[nH]2)cc1`, for which the IC50 in experiment [1] was > 10000 nM; in experiment [2], 891 nM; in experiment [3], 12 nM; in experiment [4], 37 nM.
